Entries after “also recorded” stand apart in the source; their conditions may differ.
How the values were obtained:
[1] = tested on: hNIS stable expressing FaDu transfectants
Protocol: In Vivo Tumor Growth. […] Twenty-four hours later, cells were trypsinized, washed, and resuspended in PBS. […] After allowing 48 hours for engraftment of tumor cells, 1 mCi of [^131I] iodide was injected intraperitoneally into each mouse. Second, to assess the effects of genetically targeted radiotherapy on established tumors, 5×10^6 stably transfected NIS-expressing FaDu cells or their parental counterparts were injected subcutaneously into both flanks of athymic mice. The tumors were allowed to grow to an average tumor diameter of 5 mm and then 1 mCi of [^131I] iodide was injected intraperitoneally into each mouse. In both experiments, tumor sizes were recorded in three dimensions every 2 days. Average tumor diameters were determined by taking the cube root of tumor width×length×depth. The experiments were terminated when the average tumor diameter exceeded 10 mm. All animal studies were performed in accordance with the Public Health Service policy on Humane Care and Use of Laboratory Animals, the NIH Guide for the Care and Use of Laboratory Animals, and the Animal elfare Act (7 U.S.C. et seq.); the animal use protocol was approved by the Institutional Animal Care and Use Committee (IACUC) of the University of Iowa.

[2] = tested on: NIS expressing human tumor xenograft of FaDu carcinoma cells; settings: 4.2 Gy delivered to the tumor
Source text: To begin to address this issue, the inventors have established a method to estimate dosimetry based on gamma camera imaging of ^131I uptake and retention using a pinhole collimator. […] Data collected from the pinhole collimator gamma camera imaging has enabled us to calculate doses delivered to tumor xenografts and therefore to perform comparative dosimetry between different isotopes such as ^131I and ^188ReO4—.

Ad-NIS infected cells = test: Iodide retention with recombinant LPO during the efflux period; type: cell-based; settings: recombinant LPO present during efflux period, 2 hours of efflux
Source text: The inventors are also exploring other novel methods to enhance iodine retention in cells and, to this end, they have examined the effect of lactoperoxidase (LPO) on iodide organification and retention in NIS+ cell populations.

NIS [3] = target: T1, NIS (Homo sapiens, UniProt Q92911); test: Perchlorate inhibition of NIS-mediated radioiodide uptake in FaDu cells; type: cell-based; parameters: The full-length hNIS cDNA was digested from this plasmid and ligated into the pacAd5 CMV K—N pA shuttle vector; expressed in transfected cells; settings: 1 mM sodium perchlorate added before radioiodide, Ad-hNIS-transduced FaDu cells
T1 sequence (Q92911 1-643): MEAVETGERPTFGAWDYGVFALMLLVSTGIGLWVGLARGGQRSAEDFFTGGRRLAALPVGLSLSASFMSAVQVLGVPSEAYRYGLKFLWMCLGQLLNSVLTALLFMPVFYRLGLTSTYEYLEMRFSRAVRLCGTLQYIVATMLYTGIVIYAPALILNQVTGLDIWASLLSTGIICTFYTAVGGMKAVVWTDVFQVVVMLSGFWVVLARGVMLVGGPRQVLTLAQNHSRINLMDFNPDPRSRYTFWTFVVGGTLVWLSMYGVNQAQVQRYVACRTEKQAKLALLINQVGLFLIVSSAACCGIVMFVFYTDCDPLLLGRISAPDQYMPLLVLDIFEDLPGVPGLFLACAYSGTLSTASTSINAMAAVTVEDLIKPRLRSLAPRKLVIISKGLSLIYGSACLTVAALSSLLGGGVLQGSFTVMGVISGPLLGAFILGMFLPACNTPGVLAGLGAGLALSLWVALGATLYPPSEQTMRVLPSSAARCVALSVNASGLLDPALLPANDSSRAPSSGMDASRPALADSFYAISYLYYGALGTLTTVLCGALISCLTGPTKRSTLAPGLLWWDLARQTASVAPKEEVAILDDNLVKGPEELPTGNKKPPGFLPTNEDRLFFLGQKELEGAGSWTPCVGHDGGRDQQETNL
Protocol: Radioiodide Uptake and Efflux. Cells (2.5×10^5) were seeded in each well of 12-well plates on day 1. Twelve hours later, 40 multiplicity of infection (MOI; the ratio of infectious viral particles to cells) of adenovirus was added to each well. Twenty-four hours later, 2 μCi of sodium [^125I] iodide (New England Nuclear, North Billerica, Mass.) was added to each well, and the plates were incubated for 1 hour at 37° C. […] Medium was then removed, and cells were washed once with PBS. Plates were then exposed overnight on a phosphor imaging screen, and signal intensity was determined with a Typhoon 9400 imager (Amersham Biosciences, Buckinghamshire, England). Signal intensity was compared with that of standards of known activity. […] To determine the rate of [^125I] iodide efflux from cells, uptake was performed as previously described.

[4] = tested on: NIS-expressing tumor tissue; test: Gamma camera imaging of 188ReO4 uptake in Ad-NIS injected tumor bearing mouse; type: in vivo; settings: 2 hours after systemic administration
Source text: As discussed in detail below, the beta particle emitted from ^188Re is more energetic than that of ^131I and can travel a further distance in tissue, thus may be well suited to use in the context of larger tumors that are found in human head and neck cancer.

NIS [5] = target: T1, NIS; settings: stably transfected cell lines; cited from earlier work
[6] = tested on: NIS-expressing F98 gliomas; settings: rats bearing NIS-expressing F98 gliomas; cited from earlier work
[7] = radionuclide half-life; cited from earlier work
[8] = sixty days after [131I] iodide administration

[131I-].[Na+] [[^131I] iodide, sodium [^131I] iodide]
tumors with complete response (shrunk beyond the limit of detection) ([1]; NIS-FaDu established tumors (5 mm), 1 mCi [131I] iodide i.p.): eight of eight | local adverse effects of radiotherapy ([1]; mice given 1 mCi [131I] iodide i.p.): No local adverse effects | tumors recurred [1, 8]: two | tumors remaining in complete remission [1, 8]: six | tumor outcome at the delivered dose [2]: remission of this tumor

lactoperoxidase [LPO]
cell-associated iodide during efflux (Ad-NIS infected cells): significantly longer retention times; also recorded: increased levels of cell-associated iodide

[Na+].[O-][Cl+3]([O-])([O-])[O-] [Perchlorate, sodium perchlorate]
effect on NIS-mediated [125I] iodide accumulation (NIS [3]): inhibited iodide accumulation; also recorded: inhibits NIS-mediated [^125I] iodide uptake

[O]=[Re](=[O])(=[O])[O-] [^188ReO4, Perrhenate]
tissue accumulation of 188ReO4- [4]: thyroid, stomach, and NIS-expressing tumor tissue, also display high affinity | in vitro uptake as compared to iodide (NIS [5]): two- to three-fold higher | survival versus 131I treatment [6]: increased survival | t1/2 [7]: 16.9 h

Source: patent publication US20060193832A1, “Use of the sodium iodine symporter to effect uptake of iodine” (priority 2005, published 2006)
